pIC50: −log10 of the molar value.
Legend:
human LXRβ = target: T1, human LXRβ (Homo sapiens, UniProt P55055); assay: Ligand-binding test procedure for human LXRβ (3H T0901317 competition, flash plates); details: for Binding ratio a/b: IC50 (μM) LXRα binding/IC50 (μM) LXRβ binding; for pIC50: biotinylated hLXRβ, tracer 3H T0901317
T1 construct: biotin (biotinylated; biotinylation tag not described); made in house; host or cells: E. coli
T1 sequence (P55055 1-460): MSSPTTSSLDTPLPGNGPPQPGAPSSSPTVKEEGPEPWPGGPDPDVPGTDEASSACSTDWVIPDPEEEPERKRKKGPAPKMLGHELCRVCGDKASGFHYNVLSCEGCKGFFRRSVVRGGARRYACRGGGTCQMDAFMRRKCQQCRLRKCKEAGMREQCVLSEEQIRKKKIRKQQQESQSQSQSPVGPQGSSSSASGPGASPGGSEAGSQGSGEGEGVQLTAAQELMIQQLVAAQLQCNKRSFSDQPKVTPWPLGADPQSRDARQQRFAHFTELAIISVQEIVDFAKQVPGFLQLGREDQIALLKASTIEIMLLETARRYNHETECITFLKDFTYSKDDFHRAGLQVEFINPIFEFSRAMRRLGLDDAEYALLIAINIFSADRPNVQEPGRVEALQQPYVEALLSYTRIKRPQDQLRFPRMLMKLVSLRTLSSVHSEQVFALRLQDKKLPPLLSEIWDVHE

human LXRα = target: T2, human LXRα (Homo sapiens, UniProt Q13133); assay: Ligand-binding test procedure for human LXRα (3H T0901317 competition, flash plates); details: biotinylated hLXRα, tracer 3H T0901317
T2 construct: biotin (biotinylated; biotinylation tag not described); made in house; host or cells: E. coli
T2 sequence (Q13133 1-447): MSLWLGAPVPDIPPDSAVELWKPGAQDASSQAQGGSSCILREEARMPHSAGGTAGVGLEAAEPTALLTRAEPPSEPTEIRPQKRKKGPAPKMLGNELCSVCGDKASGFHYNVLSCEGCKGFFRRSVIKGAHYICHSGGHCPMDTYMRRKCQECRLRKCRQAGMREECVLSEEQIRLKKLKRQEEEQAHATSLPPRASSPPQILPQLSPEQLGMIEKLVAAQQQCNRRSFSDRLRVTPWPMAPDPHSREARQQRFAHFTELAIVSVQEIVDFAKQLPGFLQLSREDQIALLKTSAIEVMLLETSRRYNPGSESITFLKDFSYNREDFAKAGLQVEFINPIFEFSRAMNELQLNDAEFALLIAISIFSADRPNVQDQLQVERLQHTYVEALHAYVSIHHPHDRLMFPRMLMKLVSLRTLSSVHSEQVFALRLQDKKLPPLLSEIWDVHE
Method in brief: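 Competition binding of test ligands against 5 nM ³H tracer solution (pre-mix concentration) on biotinylated hLXRα from E. coli extract, captured on streptavidin flash plates (Bmax ~4000 cpm). Ligand dilution series made in DMSO. Incubated overnight at +4 °C; bound radioactivity counted after washing.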

SMILES	Binding ratio a/b (human LXRβ)	pIC50 (human LXRβ)	pIC50 (human LXRα)
O=C(O)Cc1cccc(NCc2cccc(-c3c(Cc4ccccc4)cnc4c(C(F)(F)F)cccc34)c2)c1 [Example 30, [3-({3-[3-benzyl-8-(trifluoromethyl)quinolin-4-yl]benzyl}amino)phenyl]acetic acid]	8	8.05	7.14
O=C(O)Cc1ccc(NCc2cccc(-c3ccnc4c(C(F)(F)F)cccc34)c2)c2ccccc12 [Example 65, [4-({3-[8-(trifluoromethyl)quinolin-4-yl]benzyl}amino)-1-naphthyl]acetic acid]	4	5.69	5.05
O=C(O)c1ccc(OCc2cccc(-c3c(Cc4ccccc4)cnc4c(C(F)(F)F)cccc34)c2)c(Cl)c1 [Example 85, 4-({3-[3-benzyl-8-(trifluoromethyl)quinolin-4-yl]benzyl}oxy)-3-chlorobenzoic acid]	3	6.44	6.02
Cc1cc(C(=O)O)cc(C)c1OCc1cccc(-c2c(Cc3ccccc3)cnc3c(C(F)(F)F)cccc23)c1 [Example 26, 4-({3-[3-benzyl-8-(trifluoromethyl)quinolin-4-yl]benzyl}oxy)-3,5-dimethylbenzoic acid]	10	7.49	6.49
Cc1cc(NCc2cccc(-c3c(Cc4ccccc4)cnc4c(C(F)(F)F)cccc34)c2)ccc1C(=O)O [Example 75, 4-({3-[3-benzyl-8-(trifluoromethyl)quinolin-4-yl]benzyl}amino)-2-methylbenzoic acid]	3	7.60	7.10
O=C(O)Cc1ccc2cccc(OCc3cccc(-c4c(Cc5ccccc5)cnc5c(C(F)(F)F)cccc45)c3)c2c1 [Example 114, [8-({3-[3-benzyl-8-(trifluoromethyl)quinolin-4-yl]benzyl}oxy)-2-naphthyl]acetic acid]	1	5.92	5.89
O=C(O)c1cc2ccccc2cc1OCc1cccc(-c2c(Cc3ccccc3)cnc3c(C(F)(F)F)cccc23)c1 [Example 109, 3-({3-[3-benzyl-8-(trifluoromethyl)quinolin-4-yl]benzyl}oxy)-2-naphthoic acid]	1	5.56	5.44
Cn1c(C(=O)O)cc2cccc(NCc3cccc(-c4c(Cc5ccccc5)cnc5c(C(F)(F)F)cccc45)c3)c21 [Example 105, 7-({3-[3-benzyl-8-(trifluoromethyl)quinolin-4-yl]benzyl}amino)-1-methyl-1H-indole-2-carboxylic acid]	1	6.89	6.73
O=C(O)c1cccc(NCc2cccc(-c3c(Cc4ccccc4)cnc4c(C(F)(F)F)cccc34)c2)c1 [Example 51, 3-({3-[3-benzyl-8-(trifluoromethyl)quinolin-4-yl]benzyl}amino)benzoic acid]	6	6.68	5.93
Cc1cc(NCc2cc(-c3c(Cc4ccccc4)cnc4c(C(F)(F)F)cccc34)cs2)c(C)cc1CC(=O)O [Example 70, {4-[({4-[3-benzyl-8-(trifluoromethyl)quinolin-4-yl]-2-thienyl}methyl)amino]-2,5-dimethylphenyl}acetic acid]	4	8.70	8.15
Cc1ccc(OCc2cccc(-c3c(Cc4ccccc4)cnc4c(C(F)(F)F)cccc34)c2)c(C(=O)O)c1 [Example 102, 2-({3-[3-benzyl-8-(trifluoromethyl)quinolin-4-yl]benzyl}oxy)-5-methylbenzoic acid]	2	5.55	5.32
COc1cc(NCc2cccc(-c3c(Cc4ccccc4)cnc4c(C(F)(F)F)cccc34)c2)c(Cl)cc1C(=O)O [Example 18, 4-({3-[3-benzyl-8-(trifluoromethyl)quinolin-4-yl]benzyl}amino)-5-chloro-2-methoxybenzoic acid]	16	7.92	6.70
Cc1c(CC(=O)O)ccc(NCc2cccc(-c3ccnc4c(C(F)(F)F)cccc34)c2)c1C [Example 22, [2,3-dimethyl-4-({3-[8-(trifluoromethyl)quinolin-4-yl]benzyl}amino)phenyl]acetic acid]	13	5.86	4.76
Cc1ccc(C(=O)O)c(NCc2cccc(-c3c(Cc4ccccc4)cnc4c(C(F)(F)F)cccc34)c2)c1 [Example 33, 2-({3-[3-benzyl-8-(trifluoromethyl)quinolin-4-yl]benzyl}amino)-4-methylbenzoic acid]	8	6.78	5.89
O=C(O)c1c(F)cccc1NCc1cccc(-c2c(Cc3ccccc3)cnc3c(C(F)(F)F)cccc23)c1 [Example 58, 2-({3-[3-benzyl-8-(trifluoromethyl)quinolin-4-yl]benzyl}amino)-6-fluorobenzoic acid]	5	7.60	6.92

The remaining lines, values ahead:

Binding ratio a/b (human LXRβ)	pIC50 (human LXRβ)	pIC50 (human LXRα)	SMILES
5	6.48	5.82	Cn1c(C(=O)O)cc2cc(NCc3cccc(-c4c(Cc5ccccc5)cnc5c(C(F)(F)F)cccc45)c3)ccc21 [Example 63, 5-({3-[3-benzyl-8-(trifluoromethyl)quinolin-4-yl]benzyl}amino)-1-methyl-1H-indole-2-carboxylic acid]
1	5.56	5.44	Cc1c(C(=O)O)cc(Br)c(NCc2cccc(-c3c(Cc4ccccc4)cnc4c(C(F)(F)F)cccc34)c2)c1C [Example 108, 4-({3-[3-benzyl-8-(trifluoromethyl)quinolin-4-yl]benzyl}amino)-5-bromo-2,3-dimethylbenzoic acid]
3	6.74	6.21	Cc1cnc2c(C(F)(F)F)cccc2c1-c1cccc(CNc2ccc(C(=O)O)c(Cl)c2)c1 [Example 73, 2-chloro-4-({3-[3-methyl-8-(trifluoromethyl)quinolin-4-yl]benzyl}amino)benzoic acid]
2	6.45	6.06	O=C(O)c1cccc(COc2cccc(-c3c(Cc4ccccc4)cnc4c(C(F)(F)F)cccc34)c2)c1 [Example 90, 3-({3-[3-benzyl-8-(trifluoromethyl)quinolin-4-yl]phenoxy}methyl)benzoic acid]
5	7.57	6.90	Cc1ccc(CC(=O)O)cc1OCc1cccc(-c2c(Cc3ccccc3)cnc3c(C(F)(F)F)cccc23)c1 [Example 62, [3-({3-[3-benzyl-8-(trifluoromethyl)quinolin-4-yl]benzyl}oxy)-4-methylphenyl]acetic acid]
2	5.60	5.28	COc1ccc(C(=O)O)cc1OCc1cccc(-c2c(Cc3ccccc3)cnc3c(C(F)(F)F)cccc23)c1 [Example 98, 3-({3-[3-benzyl-8-(trifluoromethyl)quinolin-4-yl]benzyl}oxy)-4-methoxybenzoic acid]
2	5.99	5.65	O=C(O)c1ccc2ccccc2c1OCc1cccc(-c2c(Cc3ccccc3)cnc3c(C(F)(F)F)cccc23)c1 [Example 95, 1-({3-[3-benzyl-8-(trifluoromethyl)quinolin-4-yl]benzyl}oxy)-2-naphthoic acid]
2	6.11	5.82	O=C(O)c1cc(Br)cc(Oc2cccc(-c3c(Cc4ccccc4)cnc4c(Cl)cccc34)c2)c1 [Example 122, 3-[3-(3-Benzyl-8-chloroquinolin-4-yl)phenoxy]-5-bromobenzoic acid]
5	7.26	6.57	O=C(O)Cc1cccc2cc(OCc3cccc(-c4c(Cc5ccccc5)cnc5c(C(F)(F)F)cccc45)c3)ccc12 [Example 57, [6-({3-[3-benzyl-8-(trifluoromethyl)quinolin-4-yl]benzyl}oxy)-1-naphthyl]acetic acid]
2	5.80	5.40	O=C(O)c1c(F)cccc1OCc1cccc(-c2c(Cc3ccccc3)cnc3c(C(F)(F)F)cccc23)c1 [Example 89, 2-({3-[3-benzyl-8-(trifluoromethyl)quinolin-4-yl]benzyl}oxy)-6-fluorobenzoic acid]

Source: US20090069373A1, “Quinoline Acids” (Wyeth, priority 2007, published 2009)
